pEC50, pIC50: −log10 of the molar value.
Legend:
Protein X [1] = test: IC50 result for Protein X (independent biochemical assay)
Protein X [2] = test: SHG (Biodesy) titration of ligands on Protein X bound to a supported lipid bilayer; type: binding; details: Protein X on SLB; endpoint mode after 3 minutes of exposure; average of different days
Protocol: PyMPO-SE is coupled to His-tagged Protein X using the protocol described in the above Examples. Unreacted dye is purified by gel filtration. The resulting dye:protein ratio is determined spectrophotometrically. The supported bilayer membrane with Ni-NTA lipid is prepared as described in the Examples above. Recombinant His-tagged Protein X is incubated with the lipid bilayer at 5 μM for 20 minutes to produce a baseline signal following wash-out of unbound Protein X. A single ligand (denoted 3, 4 or 5) is exposed to Protein X on the surface and changes to the baseline SHG signal are measured in real time. A titration of the shift in SHG signal for each of the ligands as a function of ligand concentration is performed in endpoint mode, comparing the SHG signal after 3 minutes of exposure to the ligand at a given concentration to the baseline signal before exposure to the ligand.

Protein X [3] = test: Biacore binding to Protein X
G12V K-Ras = target: T1, G12V K-Ras (Homo sapiens, UniProt P01116, G12V); test: SHG detection of structural change of constitutively active G12V K-Ras; type: binding; details: 10 μM; PyMPO-maleimide at Cys 118; FIG. 6B
T1 construct: made in house
Protocol: PyMPO-SE is coupled to a G12V constitutively active mutant K-Ras (Abrams et al., Semin Oncol. 1996 February; 23(1):118-34) using one of the two protocols described in Example 3 above. Recombinant His-tagged (N-terminus) Ras proteins are prepared according to standard protocols (Hall et al., 2002, Proc. Nat. Acad. Sci., U.S.A., 99(19):12138-42). The Ras proteins prepared according to this protocol is bound to an SHG-active GTP analog (ATTO-390-GTP) or an SHG label is coupled to Cys 118 with PyMPO-maleimide, a cysteine-reactive dye in 0.1 M Tris pH 8.0, 20 mM NaCl, 0.5 mM TCEP, 5% glycerol and a 12:1 dye:protein ratio for one hour at room temperature. Unreacted dye is purified away by gel filtration. The resulting dye:protein ratio is determined spectrophotometrically.
Immobilized G12V mutant K-Ras is then exposed to compound 117028, which has been previously shown to decrease intracellular levels of GTP-bound K-RAS as well as to decrease activation of the Raf/Mek/Erk signaling pathway (Grant et al., 2011, PLoS One, 6(10):e25711, the disclosure of which is incorporated by reference herein). 10 μM of the compound in assay buffer is added over the wells followed by gentle mixing. Assay buffer was 20 mM Tris pH 8.0, 150 mM NaCl, 0.5 mM DTT, 0.15% DMSO. […]

wt H-Ras = target: T2, wt H-Ras (Homo sapiens, UniProt P01112); test: SHG detection of conformational change of labeled wt H-Ras tethered to a supported lipid bilayer; type: binding; details: cysteine-labeled H-Ras, serial dilutions, n=3; read-out: EC50 from SHG concentration response curve
T2 construct: fused on or other part: N-terminal 6x histidine tag, used to tether to Ni-NTA lipids; PyMPO-maleimide dye on native cysteine(s)
Protocol: Recombinant His-tagged (N-terminus) H-Ras protein was prepared according to standard protocols (6). The Ras protein prepared according to this protocol is bound to GDP. The protein was then labeled with PyMPO-maleimide, a cysteine-reactive dye in 0.1 M Tris pH 8.0, 20 mM NaCl, 0.5 mM TCEP, 5% glycerol and a 12:1 dye:protein ratio for one hour at room temperature. Unreacted dye was purified away by gel filtration. The resulting dye:protein ratio was 0.7:1 was determined spectrophotometrically. Cysteine-labeled Ras was then coupled directly to the membrane.
We labeled Ras using a standard protocol in pH 8.3 sodium bicarbonate buffer (Invitrogen, Inc.) and purified it by gel filtration and dialysis. Amine-labeled Ras was then coupled directly to the membrane.
Immediately before applying DOPC/DGS NTA (Ni) lipids, microscope slides were cleaned with Piranha wash for 20 minutes. […] Lateral mobility of the bilayers was confirmed by fluorescence recovery after photobleaching as known in the art. […]
PyMPO-SE was coupled to His-tagged wt K-Ras (Novus) using one of two protocols. […] The resulting dye:protein ratio was 0.7:1 as determined spectrophotometrically. […]
PyMPO-SE exposed to a blank bilayer (no protein) followed by washing led to no signal above background. Thus, the signal detected in the presence of protein after labeling is due to labeling of the protein itself while immobilized on the membrane. […]

[4] = tested on: Raf/Mek/Erk signaling pathway; details: previously shown, Grant et al., 2011; cited from earlier work
GTP-bound K-RAS = GTP-bound K-RAS (Homo sapiens, UniProt P01116); details: previously shown, Grant et al., 2011; cited from earlier work
Sequence of GTP-bound K-RAS (P01116 1-188 isoform P01116-2): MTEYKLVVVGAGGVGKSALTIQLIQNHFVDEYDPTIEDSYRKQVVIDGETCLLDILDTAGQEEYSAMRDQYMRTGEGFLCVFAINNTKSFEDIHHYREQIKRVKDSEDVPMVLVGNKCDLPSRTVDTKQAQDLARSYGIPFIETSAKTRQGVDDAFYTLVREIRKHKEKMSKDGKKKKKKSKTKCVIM

T1 sequence (P01116 1-188 isoform P01116-2 G12V): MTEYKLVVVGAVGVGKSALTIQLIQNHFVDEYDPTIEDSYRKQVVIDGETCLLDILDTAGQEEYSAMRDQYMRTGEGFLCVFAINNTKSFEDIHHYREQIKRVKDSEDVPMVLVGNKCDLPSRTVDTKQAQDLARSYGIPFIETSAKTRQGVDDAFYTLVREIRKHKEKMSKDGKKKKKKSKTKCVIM
T2 sequence (P01112 whole entry, the tested form may be a part): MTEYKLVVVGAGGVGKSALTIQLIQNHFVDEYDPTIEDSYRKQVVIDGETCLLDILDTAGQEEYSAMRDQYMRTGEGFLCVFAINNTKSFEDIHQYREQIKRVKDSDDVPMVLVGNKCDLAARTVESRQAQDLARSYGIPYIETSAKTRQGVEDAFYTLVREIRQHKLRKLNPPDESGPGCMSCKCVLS

SMILES	pIC50 (Protein X [1])	pEC50 (Protein X [2])	Biacore Result (Protein X [3])	effect on the conformation of G12V K-Ras (SHG), protein labeled at Cys 118 (G12V K-Ras)	pEC50 (wt H-Ras)	activation of the Raf/Mek/Erk signaling pathway [4]	intracellular levels of GTP-bound K-RAS (GTP-bound K-RAS)
O=C(CN1CCOCC1)NC1=Nc2ncccc2C(=O)NN1 [Compound 3]	6.02	6.17	Binds	–	–	–	–
Oc1c(CN2CCN(c3ccccc3)CC2)cc(Br)c2cccnc12 [Compound 1, 5-bromo-7-[(4-phenylpiperazin-1-yl)methyl]quinolin-8-ol]	–	–	–	significant effect	5.36	decrease	decrease

From patent publication US9938560B2, “Methods for identifying modulators of Ras using nonlinear techniques” (Biodesy, Inc., priority 2012, dated 2018)
